Consider four compounds from patent US10159668B2, “Pharmaceutical composition for inhibiting alpha-glucosidase” (Tamkang University, priority 2017, dated 2018).

SMILES strings stand for the structures.

Test [1] addresses rat α-glucosidase (Rat aG). As to the kind of experiment: Test of IC50: inhibitive activity on rat α-glucosidase. The class given is biochemical. Particulars: Embodiment 2, Table 2, single components. The text has this:
(§1) Testing and comparing the inhibitive activity Max % and IC50 of the composition and a known diabetes drug A (α-glucosidase inhibitor) to rat α-glucosidase (abbreviated as Rat aG) and yeast α-glucosidase (abbreviated as Yeast aG), individually. IC50 means the concentration of the inhibitor to achieve 50% inhibition rate.
(§2) The present embodiment tests IC50 of adenine, 3-hydroxy-dl-proline, nicotinic acid, (3,6-dioxo-piperazin-2-yl)-acetic acid amide, 2-ethylhexyl heptanoate, and the diabetes drug A to Rat aG and Yeast aG, individually.

The target in test [2] is yeast α-glucosidase (Yeast aG). The class given is biochemical. The note with it: Embodiment 2, Table 2, single components.
From the text: as §1, §2

`CCCCCCC(=O)OCC(CC)CCCC` (stereo not shown) [2-ethylhexyl heptanoate]: in test [1], the “Rat aGI (IC50 to Rat aG)” value turned out to be 105 µg/mL. In test [2], the “Yeast aGI (IC50 to Yeast aG)” value is 4.0 µg/mL.

For the compound `NC(=O)CC1NC(=O)CNC1=O` (stereo not shown) [(3,6-dioxo-piperazin-2-yl)-acetic acid amide], the “Rat aGI (IC50 to Rat aG)” value in test [1] was 105 µg/mL. For the same compound, in test [2], the “Yeast aGI (IC50 to Yeast aG)” value is 4.0 µg/mL.

As for `Nc1ncnc2nc[nH]c12` [Adenine], in test [2], the “Yeast aGI (IC50 to Yeast aG)” value was determined as 21.5 µg/mL.

For the compound `O=C(O)c1cccnc1` [Nicotinic acid], the “Rat aGI (IC50 to Rat aG)” value in test [1] came out at 67 µg/mL. Further, the “Yeast aGI (IC50 to Yeast aG)” value in test [2] is 517 µg/mL.
